In this assay the test system is NF-κB. The assay can be described thus: NF-κB assay: THP1-NF-κB-LUC cells, LPS-stimulated secreted luciferase. The settings on record: THP1-NF-κB-LUC cells, LPS-stimulated; read-out: IC50 (NF-κB assay). Format: cell-based. The method, then: FIG. 1 contains line plots showing NF-κB activity of exemplified compounds. 25k THP1-NF-κB-LUC cells were dispensed into 384 well plate (per well). Cells were treated with compounds (2 μM and 0.2 μM) for 2 hours before addition of LPS (10 ng/mL) for 18 hours. Secreted luciferase activity were measured using quant-luc reagents (1 bag of luc reagent dilute to 40 mL, use 10 μL per well). Data were normalized to vehicle control and graphed. Structures of selected exemplified compounds are shown.
FIG. 2 contains heat charts showing NF-κB activity of exemplified compounds as a function of concentration. 25k THP1-NF-κB-LUC cells were dispensed into 384 well plate (per well). Cells were treated with compounds (with serial dilution) for 2 hours before addition of LPS (10 ng/ml) for 18 hours. Secreted luciferase activity were measured using quant-luc reagents (1 bag of luc reagent dilute to 40 mL, use 10 μL per well). Structures of selected exemplified compounds are shown.
25k THP1-NF-κB-LUC cells were dispensed into 384 well plate (per well). Cells were treated with compounds with various concentrations for 2 hours before addition of LPS (10 ng/mL) for 18 hours. Secreted luciferase activity were measured using quant-luc reagents (1 bag of luc reagent dilute to 40 mL, use 10 μL per well). Data were normalized to vehicle control and graphed. Compound IC50 towards inhibiting NF-κB were determined through Prism. Similarly, 10k human PBMCs cells were cultured in 384 well plate (per well). Cells were treated with compounds with various concentrations for 2 hours before addition of LPS (10 ng/ml) for 18 hours, and supernatants were collected and assayed for TNF ELISA. Compound IC50 towards inhibiting TNF release were determined through Prism. • Activity: “+”>10 μM, “++”>1 μM and <10 μM, “+++”>0.1 μM and <1 μM, “++++”<0.1 μM.

Some results are limits rather than exact numbers.

Broadly, the IC50 is the midpoint of a concentration-inhibition curve. With `CCCCSc1oc(-c2ccc(F)cc2)nc1S(=O)(=O)c1ccc(C)cc1` [BC18505], the half-maximal inhibitory concentration (IC50) was 1 to 10 µM.

Turning to `CCCCSc1oc(-c2ccc(F)cc2)nc1S(=O)(=O)c1ccc(F)cc1` [BC18506], the half-inhibitory concentration (IC50) is more than 10 µM.

For the compound `CC(C)Sc1oc(-c2ccc(F)cc2)nc1S(=O)(=O)c1ccc(Cl)cc1` [BC18507], the 50% inhibitory concentration (IC50) was in the range of 1 to 10 µM.

As for `CCS(=O)(=O)c1oc(-c2ccc(F)cc2)nc1S(=O)(=O)c1ccccc1` [BC18508], the IC50 was less than 0.1 µM.

On to `CCCCS(=O)(=O)c1oc(-c2ccc(F)cc2)nc1S(=O)(=O)c1ccc(C)cc1` [BC18509], for which the IC50 was less than 0.1 µM.

Take `CCCCS(=O)(=O)c1oc(-c2ccc(F)cc2)nc1S(=O)(=O)c1ccc(F)cc1` [BC18510]: the IC50 was in the range of 0.1 to 1 µM.

In the case of `CC(C)S(=O)(=O)c1oc(-c2ccc(F)cc2)nc1S(=O)(=O)c1ccc(Br)cc1` [BC18511], the concentration for half-maximal inhibition (IC50) is less than 0.1 µM.

As for `CCSc1oc(-c2ccccc2)nc1S(=O)(=O)c1ccccc1` [BC18512], the IC50 was in the range of 1 to 10 µM.

Turning to `CSc1oc(-c2ccccc2)nc1S(=O)(=O)c1ccc(Cl)cc1` [BC18513], the 50% inhibitory concentration (IC50) was more than 10 µM.

`CCSc1oc(-c2ccc(C)cc2)nc1S(=O)(=O)c1ccc(F)cc1` [BC18514]: the IC50 is 1 to 10 µM.

As to `CSc1oc(-c2ccc(F)cc2)nc1S(=O)(=O)c1ccccc1` [BC18515], the IC50 was more than 10 µM.

For the compound `O=C(CSc1oc(-c2ccc(F)cc2)nc1S(=O)(=O)c1ccccc1)c1ccc(Cl)cc1` [BC18516], the IC50 lay within 1 to 10 µM.

With `CCC(C)Sc1oc(-c2ccc(F)cc2)nc1S(=O)(=O)c1ccc(C)cc1` (stereo not drawn) [BC18517], the IC50 fell in the range of 1 to 10 µM.

On to `CCC(C)Sc1oc(-c2ccc(F)cc2)nc1S(=O)(=O)c1ccc(F)cc1` (stereo not drawn) [BC18518], for which the IC50 fell in the range of 1 to 10 µM.

Turning to `CCCCSc1oc(-c2ccc(F)cc2)nc1S(=O)(=O)c1ccc(Cl)cc1` [BC18519], the IC50 was more than 10 µM.

With `CCCS(=O)(=O)c1oc(-c2ccc(F)cc2)nc1S(=O)(=O)c1ccccc1` [BC18520], the IC50 was less than 0.1 µM.

Consider `CCC(C)S(=O)(=O)c1oc(-c2ccc(F)cc2)nc1S(=O)(=O)c1ccc(C)cc1` (stereo not drawn) [BC18521], for which the IC50 is less than 0.1 µM.

`CS(=O)(=O)c1oc(-c2ccc(F)cc2)nc1S(=O)(=O)c1ccc(Cl)cc1` [BC18522]: the IC50 is less than 0.1 µM.

For `O=S(=O)(Cc1ccc(F)cc1)c1oc(-c2ccccc2)nc1S(=O)(=O)c1ccccc1` [BC18523], the IC50 was more than 10 µM.

`CCS(=O)(=O)c1oc(-c2ccccc2)nc1S(=O)(=O)c1ccc(Cl)cc1` [BC18524]: the IC50 lay within 1 to 10 µM.

Regarding `CC(=O)CSc1oc(-c2ccc(C)cc2)nc1S(=O)(=O)c1ccccc1` [BC18525], the IC50 is more than 10 µM.

For `CCSc1oc(-c2ccc(F)cc2)nc1S(=O)(=O)c1ccccc1` [BC18526], the IC50 is 1 to 10 µM.

In the case of `CC(C)CSc1oc(-c2ccc(F)cc2)nc1S(=O)(=O)c1ccccc1` [BC18527], the IC50 fell in the range of 1 to 10 µM.

With `Cc1ccc(S(=O)(=O)c2nc(-c3ccc(F)cc3)oc2SCC(C)C)cc1` [BC18528], the half-inhibitory concentration (IC50) is more than 10 µM.

For the compound `Cc1ccc(S(=O)(=O)c2nc(-c3ccc(F)cc3)oc2SCC(C)C)cc1` [BC18529], the 50% inhibitory concentration (IC50) lay within 1 to 10 µM.

Turning to `O=C(CSc1oc(-c2ccc(F)cc2)nc1S(=O)(=O)c1ccc(Cl)cc1)c1ccc(F)cc1` [BC18530], the IC50 lay in the range of 1 to 10 µM.

On to `CC(C)S(=O)(=O)c1oc(-c2ccc(F)cc2)nc1S(=O)(=O)c1ccccc1` [BC18531], for which the IC50 is less than 0.1 µM.

Consider `CCS(=O)(=O)c1oc(-c2ccc(F)cc2)nc1S(=O)(=O)c1ccc(F)cc1` [BC18532], for which the IC50 is less than 0.1 µM.

Regarding `CCCS(=O)(=O)c1oc(-c2ccc(F)cc2)nc1S(=O)(=O)c1ccc(Cl)cc1` [BC18533], the 50% inhibitory concentration (IC50) was less than 0.1 µM.

With `O=S(=O)(c1ccccc1)c1nc(-c2ccccc2)oc1SCc1ccccc1F` [BC18534], the IC50 is more than 10 µM.

On to `CCCSc1oc(-c2ccccc2)nc1S(=O)(=O)c1ccc(Cl)cc1` [BC18535], for which the IC50 lay in the range of 1 to 10 µM.

In the case of `CSc1oc(-c2ccc(C)cc2)nc1S(=O)(=O)c1ccc(Cl)cc1` [BC18536], the IC50 is more than 10 µM.

In the case of `CCCSc1oc(-c2ccc(F)cc2)nc1S(=O)(=O)c1ccccc1` [BC18537], the IC50 lay in the range of 1 to 10 µM.

On to `CCCCCSc1oc(-c2ccc(F)cc2)nc1S(=O)(=O)c1ccccc1` [BC18538], for which the IC50 was more than 10 µM.

`NC(=O)CSc1oc(-c2ccc(F)cc2)nc1S(=O)(=O)c1ccc(F)cc1` [BC18539]: the IC50 was more than 10 µM.

For the compound `CCCCCSc1oc(-c2ccc(F)cc2)nc1S(=O)(=O)c1ccc(F)cc1` [BC18540], the IC50 is more than 10 µM.

For `CC(C)CSc1oc(-c2ccc(F)cc2)nc1S(=O)(=O)c1ccc(Cl)cc1` [BC18541], the IC50 was more than 10 µM.

On to `CCCCS(=O)(=O)c1oc(-c2ccc(F)cc2)nc1S(=O)(=O)c1ccccc1` [BC18542], for which the IC50 was less than 0.1 µM.

As to `CCCS(=O)(=O)c1oc(-c2ccc(F)cc2)nc1S(=O)(=O)c1ccc(F)cc1` [BC18543], the IC50 was less than 0.1 µM.

On to `CCCCS(=O)(=O)c1oc(-c2ccc(F)cc2)nc1S(=O)(=O)c1ccc(Cl)cc1` [BC18544], for which the IC50 is 0.1 to 1 µM.

Regarding `CSc1oc(-c2ccccc2)nc1S(=O)(=O)c1ccc(F)cc1` [BC18545], the IC50 lay in the range of 1 to 10 µM.

With `CC(C)Sc1oc(-c2ccccc2)nc1S(=O)(=O)c1ccc(Cl)cc1` [BC18546], the IC50 lay in the range of 1 to 10 µM.

With `CCSc1oc(-c2ccc(C)cc2)nc1S(=O)(=O)c1ccc(Cl)cc1` [BC18547], the IC50 was more than 10 µM.

In the case of `CC(C)Sc1oc(-c2ccc(F)cc2)nc1S(=O)(=O)c1ccccc1` [BC18548], the IC50 was in the range of 1 to 10 µM.

Regarding `CSc1oc(-c2ccc(F)cc2)nc1S(=O)(=O)c1ccc(C)cc1` [BC18549], the IC50 was more than 10 µM.

Consider `CSc1oc(-c2ccc(F)cc2)nc1S(=O)(=O)c1ccc(F)cc1` [BC18550], for which the IC50 was more than 10 µM.

Turning to `NC(=O)CSc1oc(-c2ccc(F)cc2)nc1S(=O)(=O)c1ccc(Cl)cc1` [BC18551], the IC50 is more than 10 µM.

For `CSc1oc(-c2ccc(F)cc2)nc1S(=O)(=O)c1ccc(Br)cc1` [BC18552], the IC50 was more than 10 µM.

Consider `CCC(C)S(=O)(=O)c1oc(-c2ccc(F)cc2)nc1S(=O)(=O)c1ccccc1` (stereo not drawn) [BC18553], for which the half-inhibitory concentration (IC50) is less than 0.1 µM.

Consider `CC(C)S(=O)(=O)c1oc(-c2ccc(F)cc2)nc1S(=O)(=O)c1ccc(F)cc1` [BC18554], for which the IC50 is less than 0.1 µM.

Take `CC(C)CS(=O)(=O)c1oc(-c2ccc(F)cc2)nc1S(=O)(=O)c1ccc(Cl)cc1` [BC18555]: the IC50 was less than 0.1 µM.

With `CCSc1oc(-c2ccccc2)nc1S(=O)(=O)c1ccc(F)cc1` [BC18556], the IC50 is 1 to 10 µM.

Turning to `CCCCSc1oc(-c2ccccc2)nc1S(=O)(=O)c1ccc(Cl)cc1` [BC18557], the IC50 lay in the range of 1 to 10 µM.

Regarding `CCCSc1oc(-c2ccc(C)cc2)nc1S(=O)(=O)c1ccc(Cl)cc1` [BC18558], the IC50 is more than 10 µM.

`CCCCSc1oc(-c2ccc(F)cc2)nc1S(=O)(=O)c1ccccc1` [BC18559]: the IC50 was 1 to 10 µM.

As for `CCSc1oc(-c2ccc(F)cc2)nc1S(=O)(=O)c1ccc(C)cc1` [BC18560], the IC50 fell in the range of 1 to 10 µM.

Consider `CCSc1oc(-c2ccc(F)cc2)nc1S(=O)(=O)c1ccc(F)cc1` [BC18561], for which the half-inhibitory concentration (IC50) is 1 to 10 µM.

As for `CSc1oc(-c2ccc(F)cc2)nc1S(=O)(=O)c1ccc(Cl)cc1` [BC18562], the IC50 was more than 10 µM.

In the case of `CCSc1oc(-c2ccc(F)cc2)nc1S(=O)(=O)c1ccc(Br)cc1` [BC18563], the IC50 was more than 10 µM.

As to `O=S(=O)(Cc1ccccc1F)c1oc(-c2ccc(F)cc2)nc1S(=O)(=O)c1ccccc1` [BC18564], the IC50 was less than 0.1 µM.

Take `CCCCS(=O)(=O)c1oc(-c2ccc(F)cc2)nc1S(=O)(=O)c1ccc(F)cc1` [BC18565]: the IC50 is less than 0.1 µM.

For `CS(=O)(=O)c1oc(-c2ccc(F)cc2)nc1S(=O)(=O)c1ccc(Br)cc1` [BC18566], the IC50 was less than 0.1 µM.

Regarding `CCCSc1oc(-c2ccccc2)nc1S(=O)(=O)c1ccc(F)cc1` [BC18567], the IC50 is more than 10 µM.

Take `CCC(C)Sc1oc(-c2ccccc2)nc1S(=O)(=O)c1ccc(Cl)cc1` (stereo not drawn) [BC18568]: the IC50 is 1 to 10 µM.

`Cc1ccc(-c2nc(S(=O)(=O)c3ccc(Cl)cc3)c(SC(C)C)o2)cc1` [BC18569]: the half-inhibitory concentration (IC50) fell in the range of 1 to 10 µM.

With `CCC(C)Sc1oc(-c2ccc(F)cc2)nc1S(=O)(=O)c1ccccc1` (stereo not drawn) [BC18570], the IC50 was in the range of 1 to 10 µM.

Regarding `CCCSc1oc(-c2ccc(F)cc2)nc1S(=O)(=O)c1ccc(C)cc1` [BC18571], the IC50 fell in the range of 1 to 10 µM.

For `CCCSc1oc(-c2ccc(F)cc2)nc1S(=O)(=O)c1ccc(F)cc1` [BC18572], the half-inhibitory concentration (IC50) was more than 10 µM.

`CCSc1oc(-c2ccc(F)cc2)nc1S(=O)(=O)c1ccc(Cl)cc1` [BC18573]: the IC50 lay in the range of 1 to 10 µM.

As for `CCCSc1oc(-c2ccc(F)cc2)nc1S(=O)(=O)c1ccc(Br)cc1` [BC18574], the IC50 was more than 10 µM.

In the case of `CC(C)CS(=O)(=O)c1oc(-c2ccc(F)cc2)nc1S(=O)(=O)c1ccccc1` [BC18575], the IC50 is less than 0.1 µM.

For `CCC(C)S(=O)(=O)c1oc(-c2ccc(F)cc2)nc1S(=O)(=O)c1ccc(F)cc1` (stereo not drawn) [BC18576], the IC50 is less than 0.1 µM.

Values taken from patent US12606528B2, “Methods and materials for inhibiting NF-kB activity” (University of Pittsburgh - Of the Commonwealth System of …, priority 2019, dated 2026).
